Experimental data published in patent US12577597B2, “Transgenic microorganisms and synthesis of piperazic acid, piperazic acid containing products, and derivatives thereof” (Washington University, priority 2017, dated 2026).

Tests used:
[1] = tested on: Streptomyces flaveolus pzbB (sfaC) deletion mutant; format: cell-based
Description: FIG. 5 is a series of LC/MS spectra showing the detection of sanglifehrin, a Piz—containing compound produced by Streptomyces flaveolus. Four major isobaric isomers of sanglifehrin A detected in WT S. flaveolus fermentation extracts. As expected from the results above, an unmarked gene deletion of pzbB (sfaC) from S. flaveolus abrogates sanglifehrin production.
Data indicating L-Piz successfully penetrates at least one Piz-compound producing actinomycete was obtained, followed by subsequent incorporation into a Piz drug-like compound sanglifehrin (see e.g., FIG. 5). […] Four major isobaric isomers of sanglifehrin A detected in WT S. flaveolus fermentation extracts. As expected from the results in FIG. 5, an unmarked gene deletion of pzbB (sfaC) from S. flaveolus abrogates sanglifehrin production.

SfaC-His6 (PzbB) = assay: Hemin influence on SfaC (PzbB) N5-OH-L-ornithine in vitro assay, piperazic acid quantified by HPLC/MS; format: biochemical, Streptomyces flaveolus; details: hemin 10 μM in DMSO vs DMSO alone; SfaC-His6 2 μM; N5-OH-L-orn 1 mM; 50 mM Tris.HCl pH 8.0; aliquots at 30, 60, 90 sec
SfaC-His6 (PzbB), sequence (as listed by the source): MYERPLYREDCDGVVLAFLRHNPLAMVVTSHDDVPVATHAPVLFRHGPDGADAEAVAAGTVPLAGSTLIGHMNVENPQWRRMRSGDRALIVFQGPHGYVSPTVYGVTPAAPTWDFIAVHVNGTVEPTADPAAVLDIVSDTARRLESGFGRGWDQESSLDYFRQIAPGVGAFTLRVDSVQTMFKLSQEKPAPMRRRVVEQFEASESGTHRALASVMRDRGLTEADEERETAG
Protocol: As expected for a bona fide cofactor, adding hemin increases the rate of turnover.
100 μL of reaction in 50 mM Tris.HCl at pH 8.0 was set up with N^5—OH-L-orn (1 mM), SfaC-His6 (2 μM), and either hemin in DMSO (10 μM) or just DMSO. The two reactions were incubated at […]. Then, 30 μL aliquots were removed at 30, 60, and 90 sec, and combined with 30 μL 6% 5-sulfosalicylic acid. The cloudy mixture was centrifuged, and the supernatant was used for analysis. Sample was analyzed for piperazic acid by HPLC/MS. Analysis was performed using an lmtakt Intrada Amino Acid column (50×3 mm, 3 μm pore size) installed on an Agilent 1260 Infinity HPLC connected to an Agilent 6420 Triple-Quad mass spectrometer using the following method: T=0, 86% B; T=3, 86% B; T=10, 0% B; T=11, 0% B; T=12, 86% B; T=14, 86% B; A: water+100 mM ammonium formate, B: acetonitrile+0.1% formic acid; 0.6 mL/min. An extracted ion count chromatogram at m/z 131.1 (monoisotopic mass of protonated piperazic acid) was used to detect piperazic acid. For quantification, an SRM transition (m/z 131.1=>56.3; source voltage, 86 V; collision energy, 37 V) was monitored, and a standard curve (second order polynomial, R2=0.9996) was generated between 0.1 μM and 100 μM using a chemically synthesized L-piperazic acid dihydrochloride standard. The concentrations in time were plotted, and fitted to a line. […]

Compound	toxicity (qualitative) ([1]; 50 μM exogenous L-Piz, S. flaveolus)	cell penetrance ([1]; inferred from restored sanglifehrin production with 50 μM exogenous L-Piz in S. flaveolus)	increase of the slope (rate of reaction, piperazic acid formation) by hemin (SfaC-His6 (PzbB)) [times]
O=C(O)C1CCCNN1 [L-Piz, L-piperazic acid]	qualitatively nontoxic	cell penetrant	–
Fe^+3-protoporphryin IX [Hemin]	–	–	14.4
